Measured values published in patent US7888367B2, “1-[2′,3′ -dideoxy-3′ C-(hydroxymethyl)—beta-D-erythro-pentofuranosyl] cytosine derivatives as HIV” (Medivir AB, priority 2005, dated 2011).

Tests used:
[1] = system: TAM primer rescue-related resistant HIV-1 isolates in PBMC; assay: Drug susceptibility assay in PBMC culture (p24 antigen); type: cell-based
Experimental: The antiviral performance of the compound of the invention against additional TAM primer rescue-related resistant HIV isolates was assayed in a PBMC culture. Isolates of HIV-1 were generated and expanded to high titer by co-cultivation of infected patient PBMC with PHA-stimulated donor PBMC (Virology Manual for ACTG HIV Laboratories). The cell-free supernatants were harvested, sequenced, and stored in aliquots at −70° C. for drug susceptibility assays.
In vitro drug susceptibility assays were performed using a modified ACTG/DOD consensus method (Virology Manual for ACTG HIV laboratories). PBMCs were pre-infected with viral stocks for 4 hrs at 37° C. in a humidified atmosphere of 5% CO2 following 4 hr incubation. Infected cells were washed twice in media and pipetted into a microtiter plate with eight serial drug dilutions. Each well contained 100,000 pre-infected PBMC and all drug dilutions were made with cell culture medium. The drug dilutions were chosen to span the 50% inhibitory concentration (IC50) for each single drug. Control wells containing cells and virus were co-incubated on each plate. After a 7-day incubation at 37° C. in a […] atmosphere of 5% CO2, viral growth was determined using a p24 antigen assay on supernatants (Abbott Laboratories, Chicago, USA). The percent inhibition of viral growth compared to the control well, which contained no drug, was calculated and expressed as fold changes (reductions in compounds susceptibility) compared to the control well. The reference compound AZT was run in parallel with the compound of the invention.
A cluster of representative of primer rescue-related mutant virus was selected that harbors the essential feature of primer rescue-related TAM resistant RT mutations. Strains with mutations at position M41L, D67N, K70R, L210W, T215Y/F and K219Q/E in various combinations with or without discriminative mutant M184V were used as indicated in Table 4.

[2] = system: HIV-1 primer rescue-related patient isolates 31, 32 and 35 (T69S+XX+TAMs); assay: PhenoSense HIV assay, Example 2c; type: cell-based
Experimental: (§1) The susceptibility of the compounds of the invention, measured as the plasma metabolite 2′,3′-dideoxy, 3′-C-hydroxymethyl-β-D-erythropentofuranosylcytosine on HIV-1 isolates from patient plasma samples that bear typical TAM primer rescue mutant resistant genotypes is determined by the commercially available PhenoSense HIV assay (described in Petropoulos, C J et al., (2000) Antimicrob. Agents Chemother. 44:920-928 and performed by ViroLogics, Inc). The assay is performed by amplifying the protease (PR)—RT segment of the HIV pol gene from patient plasma and inserting the amplification products into a modified HIV-1 vector derived from an NL4-3 molecular clone.
(§2) Viral stocks are prepared by co-transfecting 293 cell cultures with recombinant viral DNA vector and an expression vector that produces the amphotropic murine leukemia virus envelope proteins. Pseudotyped virus particles are harvested from the transfected cell cultures and are used to infect fresh 293 cell cultures. The recombinant viral DNA contains a luciferase gene cassette within the HIV env gene region and the production of luciferase in target cells is dependent on the completion of one round of virus replication. Drug susceptibility is measured by adding serial concentrations of the compound of the invention and the reference compounds to the cells. Drugs that inhibit virus replication reduce luciferase signal in a dose-dependent manner, providing a quantitative measure of drug susceptibility.
Continuous challenge of patients with antiretroviral agents results in the emergence of MDR. A T69S mutation with a 6-bp insertion between amino acids 68 and 70 in the finger region of RT is often seen in combination with various forms of TAMs and contributes to an enhanced primer rescue activity. A cluster of MDR (with different forms of amino acid insertion(s)) in combination with TAM was chosen, as outlined in Table 3.

[3] = system: HIV-1 primer rescue-related TAM patient isolates 20 and 21; assay: PhenoSense HIV assay, Example 2a; type: cell-based; conditions: for potency against patient virus compared to wildtype: isolates 20 and 21
Experimental: as §1, §2
Wild-type HIV virus is used as the reference. Here, the inhibition of the patient isolate 20 and 21 strains is expressed as the fold change in reduction of susceptibility to the treatment drug as compared to parallel runs of the reference. The following antiviral drugs were tested: AZT, 3TC, TNF, ABC, d4T, FTC and the compound of the invention, as the plasma metabolite 2′,3′-dideoxy, 3′-C-hydroxymethyl-β-D-erythropentofuranosylcytosine.

[4] = system: HIV-1 isolate 4 (K65R+M184V discriminative mutant); assay: PhenoSense HIV assay, Example 2d; type: cell-based
[5] = system: HIV-1 TAM primer rescue-related patient isolate 19 (M184V + TAMs); assay: PhenoSense HIV assay, Example 2b; type: cell-based
Experimental: as §1
as §2, with “The recombinant viral DNA contains a luciferase gene cassette within the HIV env gene region and the production of luciferase in target cells is dependent on the completion of one round of virus replication.” left out, “susceptibility. […]” for “susceptibility.”

[6] = reference compounds (markers) of the permeability assay; cited from earlier work

Question: For `Nc1ccn([C@H]2C[C@H](CO)[C@@H](CO)O2)c(=O)n1` [2′,3′-dideoxy, 3′-C-hydroxymethyl-β-D-erythropentofuranosylcytosine], which “highest FC value over all 8 isolates” value ([1]; all 8 isolates of Table 4) is on record?
Answer: ≤ 2.7

Question: And the “fold change in susceptibility” value ([2]; isolate 32)?
Answer: 2.79 fold

Question: What about the “fold change in susceptibility” value ([2]; isolate 35) of the same molecule?
Answer: 4.29 fold

Question: What about the “change in drug susceptibility compared with six reference antivirals” value ([2]; isolates 31, 32 and 35) of the same molecule?
Answer: smallest change in drug susceptibility

Question: And the “fold reduction in susceptibility vs wild-type HIV” value (“fold reduction in susceptibility” for short) ([3]; isolate 20)?
Answer: 1.0 fold

Question: What about the “fold reduction in susceptibility” value ([3]; isolate 21) of the same molecule?
Answer: < 1.0 fold

Question: And the “FC value (fold change in susceptibility)” value [4]?
Answer: 3.88

Question: What about the “fold difference in susceptibility compared to wild type HIV” value [5] of the same molecule?
Answer: 1.78 fold

Question: What does the source list for `Nc1nc(NC2CC2)c2ncn([C@H]3C=C[C@@H](CO)C3)c2n1` [ABC, abacavir]?
Answer: potency against patient virus compared to wildtype [3]: lost potency; FC value (fold change in susceptibility) [4]: > 9.0

Question: Which FC value ([1]; isolate 7086 (T215V)) does the source give for `Cc1cn([C@H]2C[C@H](N=[N+]=[N-])[C@@H](CO)O2)c(=O)[nH]c1=O` [AZT, zidovudine] here?
Answer: 3.0

Question: And the “drop in FC value” ([1]; most of the selected primer rescue mutants)?
Answer: a couple of hundred folds

Question: What about the “fold reduction in susceptibility” value ([3]; isolates 20 and 21, isolate not specified) of the same molecule?
Answer: 451 fold

Question: And the “FC value (fold change in susceptibility)” value [4]?
Answer: 1.11

Question: What about the “activity against the resistant virus” value [5] of the same molecule?
Answer: lost activity

Question: Which “FC value (fold change in susceptibility)” value [4] does the source give for `Nc1ccn([C@@H]2CS[C@H](CO)O2)c(=O)n1` [Example 3TC, lamivudine] here?
Answer: > 200

Question: Which “potency against patient virus compared to wildtype” value (shortened to “potency … compared to wildtype”) [3] does the source give for `Nc1nc(=O)n([C@@H]2CS[C@H](CO)O2)cc1F` [FTC, emtricitabine] here?
Answer: lost potency

Question: And the “FC value (fold change in susceptibility)” value [4]?
Answer: > 40

Question: Which “% absorption in man” value [6] does the source give for `N[C@@H](Cc1ccccc1)C(=O)O` [L-Phenylalanine] here?
Answer: 100%

Question: With `OC[C@@H](O)[C@@H](O)[C@H](O)[C@H](O)CO` [Mannitol] as the molecule, how does the “% absorption in man” value [6] read?
Answer: 16%

Question: Which “% absorption in man” value [6] does the source give for `CN(Cc1cnc2nc(N)nc(N)c2n1)c1ccc(C(=O)N[C@@H](CCC(=O)O)C(=O)O)cc1` [Methotrexate] here?
Answer: 20%

Question: With `C[C@H](Cn1cnc2c(N)ncnc21)OCP(=O)(O)O` [TFN, tenofovir] as the molecule, how does the “potency … compared to wildtype” value [3] read?
Answer: lost potency

Question: With `Cc1cn([C@H]2C=C[C@@H](CO)O2)c(=O)[nH]c1=O` [d4T, stavudine] as the molecule, how does the “potency … compared to wildtype” value [3] read?
Answer: lost potency

Question: What about the “FC value (fold change in susceptibility)” value [4] of the same molecule?
Answer: 0.71
